We go through five molecules from patent US10894817B2, “Fatty acid modified urocortin-2 analogs for the treatment of diabetes and chronic kidney disease” (priority 2016, dated 2021).

As usually defined, the EC50 is the midpoint of the concentration-response curve.

For this assay, the target named is T1, human CRHR2b (Homo sapiens, UniProt Q13324).
T1 construct: expressed in transfected cells; host or cells: Chinese Hamster Ovary (CHO) cells, transient transfection
T1 sequence (Q13324 1-438 isoform Q13324-2): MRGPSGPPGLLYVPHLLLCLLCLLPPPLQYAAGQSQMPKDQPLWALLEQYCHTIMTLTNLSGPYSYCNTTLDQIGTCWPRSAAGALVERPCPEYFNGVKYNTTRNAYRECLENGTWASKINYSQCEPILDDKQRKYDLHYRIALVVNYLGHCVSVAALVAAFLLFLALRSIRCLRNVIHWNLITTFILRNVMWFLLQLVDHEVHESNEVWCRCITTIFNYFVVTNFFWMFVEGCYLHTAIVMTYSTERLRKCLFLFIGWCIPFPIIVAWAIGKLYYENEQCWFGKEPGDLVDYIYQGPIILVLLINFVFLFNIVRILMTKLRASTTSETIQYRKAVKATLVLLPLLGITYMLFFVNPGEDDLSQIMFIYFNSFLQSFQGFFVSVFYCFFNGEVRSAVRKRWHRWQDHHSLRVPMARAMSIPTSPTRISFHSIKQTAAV
As to the kind of experiment: human CRHR2b cell-based cAMP assay. To be noted: cAMP assay; Table 26, compounds of Example 9; read-out: hCRHR2b Average EC50. The procedure: CRHR agonistic activity is measured in a cell-based cAMP assay. Serial dilutions of the test peptides are made in assay buffer containing Hank's Balanced Salt Solution (HBSS, without phenol red) supplemented with 20 mM HEPES and 0.05% lactalbumin enzymatic hydrolysate (LAH) (“assay buffer”). […] A one to three dilution of the test peptides is used in both assays. Receptor over-expressing Chinese Hamster Ovary (CHO) cell line is used for the human CRHR2b assay. […] AF011406.1). Forty-eight hours after the transfection, the cells are centrifuged to remove the culture media and resuspended in fetal bovine serum containing 5% DMSO. They are cryofrozen and stored in vials in liquid nitrogen (20×10^6 cells/ml/vial). On the day of the assay, cells are thawed and resuspended in cold 30 ml culture media supplemented with 20 mM HEPES. The cells are then centrifuged to remove the media and washed once with HBSS supplemented with 20 mM HEPES. Finally, following the last centrifugation, the cells are resuspended in assay buffer. Thirty-thousand cells are used in the human CRHR2b assay for each treatment. The cells are dispensed into Costar 96-well black polystyrene half area EIA/RIA plates (Corning Incorporated, Corning, N.Y.) followed by the addition of the diluted peptides, each at a volume of 20 μL. The agonist induced cAMP levels are detected using a HTRF cAMP Dynamic 2 kit (CisBio, Bedford, Mass.). After incubation at 37° C. for 30 min, the assay is stopped by cell lysis via the addition of 20 μL of d2-labeled cAMP and followed by 20 μL of cryptate-labeled anti-cAMP antibody, as described by the manufacturer. Cellular cAMP (as a result of agonist stimulation) competes with the d2-labeled cAMP for binding to the antibody. HTRF detection is performed on an Envision plate reader (Perkin Elmer Life and Analytical Sciences, Waltham, Mass.) by measuring ratiometric emission at 620 and 665 nm after excitation at 320 nm. The data are converted to picomoles of cAMP using a standard curve obtained from the same assay performed with varying concentrations of unlabeled cAMP. […] The data are analyzed using a Curve Fitting Tool to calculate ED50. Numeric values shown below in Table 1 represent the mean of multiple runs (number of runs shown in parentheses) following the mean value±SEM.

The structures appear in SMILES notation. Starred links: 1 amine or outer side, 2 acyl side, 3 side chain; linkers in the order of their positions; H or OH if unused. Residues, ends and D or L forms follow the SMILES beside them. Groups on a side chain read outwards from the residue. *: point of attachment. γGlu = O=C(O)[C@H](CCC(=O)[*:2])N[*:1]; Palmitoyl = CCCCCCCCCCCCCCCC(=O)*

On to `CCCCCCCCCCCCCCCC(=O)N[C@@H](CCC(=O)NCCCC[C@H](NC(=O)[C@H](CCCCN)NC(=O)[C@H](CCC(=O)O)NC(=O)[C@H](CCC(N)=O)NC(=O)[C@H](CCC(=O)O)NC(=O)[C@H](CC(C)C)NC(=O)[C@H](CC(C)C)NC(=O)[C@@H](NC(=O)[C@H](CCC(N)=O)NC(=O)[C@H](CC(C)C)NC(=O)[C@H](CC(C)C)NC(=O)CNC(=O)[C@@H](NC(=O)[C@@H]1CCCN1C(=O)[C@@H](NC(=O)[C@H](CC(=O)O)NC(=O)[C@H](CC(C)C)NC(=O)[C@H](CO)NC(=O)[C@H](CC(C)C)NC(=O)[C@@H](NC(=O)[C@@H](N)[C@@H](C)CC)C(C)C)C(C)C)[C@@H](C)CC)[C@@H](C)CC)C(=O)N[C@@H](CCC(=O)O)C(=O)N[C@@H](CCCCN)C(=O)N[C@@H](CCC(=O)O)C(=O)N[C@@H](CCCCN)C(=O)N[C@@H](CCC(N)=O)C(=O)N[C@@H](CCC(N)=O)C(=O)N[C@@H](C)C(=O)N[C@H](C(=O)N[C@H](C(=O)N[C@@H](CC(N)=O)C(=O)N[C@@H](C)C(=O)N[C@@H](CCCNC(=N)N)C(=O)N[C@H](C(=O)N[C@@H](CC(C)C)C(=O)N[C@@H](C)C(=O)N[C@@H](CCCNC(=N)N)C(=O)N[C@H](C(N)=O)C(C)C)[C@@H](C)CC)[C@@H](C)O)[C@@H](C)O)C(=O)O` [Compound 26] (H-IVLSLDVPIGLLQILLEQEKK([γGlu-Palmitoyl])EKEKQQATTNARILARV-NH2), for which the EC50 is 15.6 nM.
Regarding `CCCCCCCCCCCCCCCC(=O)N[C@@H](CCC(=O)NCCCC[C@H](NC(=O)[C@H](CCC(N)=O)NC(=O)[C@H](CCCCN)NC(=O)[C@H](CCC(=O)O)NC(=O)[C@H](CCC(N)=O)NC(=O)[C@H](CCC(=O)O)NC(=O)[C@H](CC(C)C)NC(=O)[C@H](CC(C)C)NC(=O)[C@@H](NC(=O)[C@H](CCC(N)=O)NC(=O)[C@H](CC(C)C)NC(=O)[C@H](CC(C)C)NC(=O)CNC(=O)[C@@H](NC(=O)[C@@H]1CCCN1C(=O)[C@@H](NC(=O)[C@H](CC(=O)O)NC(=O)[C@H](CC(C)C)NC(=O)[C@H](CO)NC(=O)[C@H](CC(C)C)NC(=O)[C@@H](NC(=O)[C@@H](N)[C@@H](C)CC)C(C)C)C(C)C)[C@@H](C)CC)[C@@H](C)CC)C(=O)N[C@@H](CCCCN)C(=O)N[C@@H](CCC(=O)O)C(=O)N[C@@H](CCCCN)C(=O)N[C@@H](CCC(N)=O)C(=O)N[C@@H](CCC(N)=O)C(=O)N[C@@H](C)C(=O)N[C@H](C(=O)N[C@H](C(=O)N[C@@H](CC(N)=O)C(=O)N[C@@H](C)C(=O)N[C@@H](CCCNC(=N)N)C(=O)N[C@H](C(=O)N[C@@H](CC(C)C)C(=O)N[C@@H](C)C(=O)N[C@@H](CCCNC(=N)N)C(=O)N[C@H](C(N)=O)C(C)C)[C@@H](C)CC)[C@@H](C)O)[C@@H](C)O)C(=O)O` [Compound 27] (H-IVLSLDVPIGLLQILLEQEKQK([γGlu-Palmitoyl])KEKQQATTNARILARV-NH2), the EC50 came to 31.5 nM.
On to `CCCCCCCCCCCCCCCC(=O)N[C@@H](CCC(=O)NCCCC[C@H](NC(=O)[C@H](CCC(=O)O)NC(=O)[C@H](CCC(N)=O)NC(=O)[C@H](CCCCN)NC(=O)[C@H](CCC(=O)O)NC(=O)[C@H](CCC(N)=O)NC(=O)[C@H](CCC(=O)O)NC(=O)[C@H](CC(C)C)NC(=O)[C@H](CC(C)C)NC(=O)[C@@H](NC(=O)[C@H](CCC(N)=O)NC(=O)[C@H](CC(C)C)NC(=O)[C@H](CC(C)C)NC(=O)CNC(=O)[C@@H](NC(=O)[C@@H]1CCCN1C(=O)[C@@H](NC(=O)[C@H](CC(=O)O)NC(=O)[C@H](CC(C)C)NC(=O)[C@H](CO)NC(=O)[C@H](CC(C)C)NC(=O)[C@@H](NC(=O)[C@@H](N)[C@@H](C)CC)C(C)C)C(C)C)[C@@H](C)CC)[C@@H](C)CC)C(=O)N[C@@H](CCC(=O)O)C(=O)N[C@@H](CCCCN)C(=O)N[C@@H](CCC(N)=O)C(=O)N[C@@H](CCC(N)=O)C(=O)N[C@@H](C)C(=O)N[C@H](C(=O)N[C@H](C(=O)N[C@@H](CC(N)=O)C(=O)N[C@@H](C)C(=O)N[C@@H](CCCNC(=N)N)C(=O)N[C@H](C(=O)N[C@@H](CC(C)C)C(=O)N[C@@H](C)C(=O)N[C@@H](CCCNC(=N)N)C(=O)N[C@H](C(N)=O)C(C)C)[C@@H](C)CC)[C@@H](C)O)[C@@H](C)O)C(=O)O` [Compound 28] (H-IVLSLDVPIGLLQILLEQEKQEK([γGlu-Palmitoyl])EKQQATTNARILARV-NH2), for which the EC50 worked out at 83.2 nM.
`CCCCCCCCCCCCCCCC(=O)N[C@@H](CCC(=O)NCCCC[C@H](NC(=O)[C@H](CCCCN)NC(=O)[C@H](CCC(=O)O)NC(=O)[C@H](CCC(N)=O)NC(=O)[C@H](CCCCN)NC(=O)[C@H](CCC(=O)O)NC(=O)[C@H](CCC(N)=O)NC(=O)[C@H](CCC(=O)O)NC(=O)[C@H](CC(C)C)NC(=O)[C@H](CC(C)C)NC(=O)[C@@H](NC(=O)[C@H](CCC(N)=O)NC(=O)[C@H](CC(C)C)NC(=O)[C@H](CC(C)C)NC(=O)CNC(=O)[C@@H](NC(=O)[C@@H]1CCCN1C(=O)[C@@H](NC(=O)[C@H](CC(=O)O)NC(=O)[C@H](CC(C)C)NC(=O)[C@H](CO)NC(=O)[C@H](CC(C)C)NC(=O)[C@@H](NC(=O)[C@@H](N)[C@@H](C)CC)C(C)C)C(C)C)[C@@H](C)CC)[C@@H](C)CC)C(=O)N[C@@H](CCCCN)C(=O)N[C@@H](CCC(N)=O)C(=O)N[C@@H](CCC(N)=O)C(=O)N[C@@H](C)C(=O)N[C@H](C(=O)N[C@H](C(=O)N[C@@H](CC(N)=O)C(=O)N[C@@H](C)C(=O)N[C@@H](CCCNC(=N)N)C(=O)N[C@H](C(=O)N[C@@H](CC(C)C)C(=O)N[C@@H](C)C(=O)N[C@@H](CCCNC(=N)N)C(=O)N[C@H](C(N)=O)C(C)C)[C@@H](C)CC)[C@@H](C)O)[C@@H](C)O)C(=O)O` [Compound 29] (H-IVLSLDVPIGLLQILLEQEKQEKK([γGlu-Palmitoyl])KQQATTNARILARV-NH2): the concentration for a half-maximal effect (EC50) is 64.7 nM.
Turning to `CCCCCCCCCCCCCCCC(=O)N[C@@H](CCC(=O)NCCCC[C@H](NC(=O)[C@H](CCC(=O)O)NC(=O)[C@H](CCCCN)NC(=O)[C@H](CCC(=O)O)NC(=O)[C@H](CCC(N)=O)NC(=O)[C@H](CCCCN)NC(=O)[C@H](CCC(=O)O)NC(=O)[C@H](CCC(N)=O)NC(=O)[C@H](CCC(=O)O)NC(=O)[C@H](CC(C)C)NC(=O)[C@H](CC(C)C)NC(=O)[C@@H](NC(=O)[C@H](CCC(N)=O)NC(=O)[C@H](CC(C)C)NC(=O)[C@H](CC(C)C)NC(=O)CNC(=O)[C@@H](NC(=O)[C@@H]1CCCN1C(=O)[C@@H](NC(=O)[C@H](CC(=O)O)NC(=O)[C@H](CC(C)C)NC(=O)[C@H](CO)NC(=O)[C@H](CC(C)C)NC(=O)[C@@H](NC(=O)[C@@H](N)[C@@H](C)CC)C(C)C)C(C)C)[C@@H](C)CC)[C@@H](C)CC)C(=O)N[C@@H](CCC(N)=O)C(=O)N[C@@H](CCC(N)=O)C(=O)N[C@@H](C)C(=O)N[C@H](C(=O)N[C@H](C(=O)N[C@@H](CC(N)=O)C(=O)N[C@@H](C)C(=O)N[C@@H](CCCNC(=N)N)C(=O)N[C@H](C(=O)N[C@@H](CC(C)C)C(=O)N[C@@H](C)C(=O)N[C@@H](CCCNC(=N)N)C(=O)N[C@H](C(N)=O)C(C)C)[C@@H](C)CC)[C@@H](C)O)[C@@H](C)O)C(=O)O` [Compound 30] (H-IVLSLDVPIGLLQILLEQEKQEKEK([γGlu-Palmitoyl])QQATTNARILARV-NH2), the EC50 stood at 12.4 nM.
